# In US20090280069A1, “PROGUANIL TO TREAT SKIN/MUCOSAL DISEASES” (Tolmar, Inc., priority 2008, published 2009):
# Tested on: S. pyogenes ATCC 19615
# Assay: time kill assay, S. pyogenes (Group A)
# Assay type: cell-based, Streptococcus pyogenes
# Method: Streptococcus pyogenes (Group A) infections can lead to many skin disease syndromes. Impetigo, ecthyma, erysipelas, and cellulitis are all diseases caused by an infection of S. pyogenes. A microbiological study used a time kill assay with S. pyogenes ATCC 19615 as an indicator of the antibacterial activity of proguanil. […] A broth only control as well as a solvent 10% DGME control were added to the vials so that the total test volume was 15 ml. One hundred μl of a freshly grown suspension of the S. pyogenes was then added at time zero so that the initial bacterial suspension was between 10^7 and 10^8 CFU/ml. All test and control suspensions were then incubated under aerobic conditions at 35° C. Aliquots of the test and control suspensions were removed at 24, 48, and 72 hours and plated onto tryptic soy agar in triplicate using a spiral plater. These plates were incubated aerobically at 35° C. for 1-3 days. Surviving colonies were then counted and the CFU/ml of test and control suspensions calculated and graphed. The effects of proguanil on the S. pyogenes were observed.
smiles,measurement,setting,value
"CC(C)NC(=N)NC(=N)Nc1ccc(Cl)cc1 [Proguanil, N-(4-Chlorophenyl)-N′-(1-methylethyl)imidodicarbonimidic diamide]",effect on the bacteria,1.6 μg/ml,roughly followed the trend of the Mueller Hinton II broth control
same,effect on the bacteria,"8 μg/ml and 16 μg/ml, compared to Mueller Hinton II control",may be slightly inhibitory
same,effect on the bacteria,"80 μg/ml, lesser effect than 160 and 100 μg/ml",good growth inhibition
same,effect on the bacteria,"100 μg/ml, over 72 hours, single assay",substantial effect
same,CFU/ml,"160 μg/ml, T=24, 48 and 72 hours",0 CFU/ml
same,effect on the bacteria,"160 μg/ml, lowest CFU/ml at all time points",greatest effect
same,Relative Sensitivity (Compared to Other Strains Tested),Streptococcus pyrogenes (Group A) ATCC 19615,Sensitive
same,Approximate Inhibitory Level,"Streptococcus pyrogenes (Group A) ATCC 19615, level at which partial or total inhibition of growth is observed",80 to 160 µg/mL
